The source of these data is ChEMBL document CHEMBL1158966, “Chemical characterization and pharmacological activity of nazlinin, a novel indole alkaloid from Nitraria schoberi” (1991).

Experiment [1] is described as follows: Contractile activity in rabbit celiac arteries relative to control. The format is functional. Particulars: Oryctolagus cuniculus, Celiac artery.
The nature of experiment [2]: Contractile activity in rabbit mesenteric arteries relative to control. The format is functional. Particulars: Oryctolagus cuniculus, Mesenteric artery.
For experiment [3], the species on record is Oryctolagus cuniculus. Description: Vasorelaxant activity against PGF2-alpha-induced contraction in endothelium-intact rabbit aortic rings up to 40 nmol. Particulars: Aorta. The format is functional, tissue-based.
The species named for experiment [4] is Oryctolagus cuniculus. Description: Vasorelaxant activity against PGF2-alpha-induced contraction in endothelium-denuded rabbit aortic rings at 0.04 to 400 nmol. The class given is functional, tissue-based. The settings on record: Aorta.
The test system of experiment [5] is Aorta. The experiment is described as follows: Contractile activity in endothelium-intact rabbit aortic rings at >40 nmol to 400 nmol. Particulars: Oryctolagus cuniculus. The format is functional, tissue-based.
For experiment [6], the species on record is Oryctolagus cuniculus. The experiment is described as follows: (§1) Contractile activity in rabbit mesenteric artery. The format is functional.
Experiment [7] can be described thus: as §1. The class given is functional, Oryctolagus cuniculus.
Experiment [8] is filed under the species Oryctolagus cuniculus. The experiment is described as follows: (§2) Contractile activity in rabbit celiac artery. The format is functional.
Experiment [9] is described as follows: as §2. The format is functional, Oryctolagus cuniculus.
For experiment [10], the species on record is Oryctolagus cuniculus. Description: Vasorelaxant activity against PGF2-alpha-induced contraction in endothelium-intact rabbit aortic rings in presence of atropine sulfate. The class given is functional, tissue-based. The settings on record: Aorta.
For experiment [11], the species on record is Oryctolagus cuniculus. The experiment is described as follows: Vasorelaxant activity against PGF2-alpha-induced contraction in endothelium-intact rabbit aortic rings in presence of propranolol hydrochloride. The class given is functional, tissue-based. The settings on record: Aorta.
The species entered for experiment [12] is Oryctolagus cuniculus. Description: Vasorelaxant activity against PGF2-alpha-induced contraction in endothelium-intact rabbit aortic rings in presence of ketanserin tartrate. The format is functional, tissue-based. The settings on record: Aorta.
The species named for experiment [13] is Oryctolagus cuniculus. Description: Vasorelaxant activity against PGF2-alpha-induced contraction in endothelium-intact rabbit aortic rings in presence of prazosin. Particulars: Aorta. The format is functional, tissue-based.
For experiment [14], the species on record is Oryctolagus cuniculus. Description: Vasorelaxant activity against PGF2-alpha-induced contraction in endothelium-intact rabbit aortic rings in presence of phentolamine. The class given is functional, tissue-based. The settings on record: Aorta.
For experiment [15], the system named is Aorta. The experiment is described as follows: Contractile activity in endothelium-intact rabbit aortic rings in presence of ketanserin tartrate. The format is functional, tissue-based. Particulars: Oryctolagus cuniculus.
Experiment [16] is filed under the species Oryctolagus cuniculus. Description: Vasorelaxant activity against PGF2-alpha-induced contraction in endothelium-intact rabbit aortic rings in presence of indomethacin. The format is functional, tissue-based. Particulars: Aorta.

Calls of active or inactive are those of the source. The calls are words filed in the database; no cut-off is given here.

`NCCc1c[nH]c2ccc(O)cc12` [SEROTONIN]: the Emax (as a rule, the maximal effect, on the per cent scale that the assay sets) in experiment [1] worked out at 110%; in [2], 108%. Also, the outcome in the experiment filed under Oryctolagus cuniculus [3] and in the experiment with Aorta [5] was Active. In the experiment listed under Oryctolagus cuniculus [4], the result was inactive. Further, the Activity result in the experiment listed under Oryctolagus cuniculus [6] and in the experiment filed under Oryctolagus cuniculus [8] was “Dose-dependent effect” throughout. The ED50 was determined as 126 pmol in [7] and 156 pmol in experiment [9].

Take `NC1CCCCNCCc2c1[nH]c1ccccc21` (stereo not given) [NAZLININ]: the outcome in the experiment listed under Oryctolagus cuniculus [10], in the experiment filed under Oryctolagus cuniculus [11], in the experiment listed under Oryctolagus cuniculus [12], in the experiment filed under Oryctolagus cuniculus [3], in the experiment filed under Oryctolagus cuniculus [13] and in the experiment filed under Oryctolagus cuniculus [14] was Active. Besides, the result with Aorta [5] and in the experiment listed under Oryctolagus cuniculus [16] was Active. Moreover, the Emax turned out to be 71% in [1] and 83% in [2]. Moreover, the outcome in the experiment with Aorta [15] and in the experiment listed under Oryctolagus cuniculus [4] was inactive. The Activity entry in the experiment filed under Oryctolagus cuniculus [6] and in the experiment listed under Oryctolagus cuniculus [8] was “Dose-dependent effect” in each case. Besides, the figures for the ED50 in experiment [7] and in [9] were 70000 pmol and 115000 pmol, respectively.
